Measurements published in US20150111864A1, “CRYSTALLINE FORM OF A BETA-LACTAMASE INHIBITOR” (Cubist Pharmaceuticals, Inc., priority 2013, published 2015).

Key:
[1] = test system: Panel of Isogenic and Clinical Strains Expressing β-Lactamases; assay: Standard BLI Potentiation MIC Assay in Combination with Ceftolozane, whole panel; assay type: cell-based; conditions: panel of 24 strains; no BLI
Procedure: (§1) The experimental protocol was performed according to Clinical and Laboratory Standards Institute (CLSI) guidelines with modifications as described below (CLSI guidelines can be derived from the CLSI document M07-A9 published in January 2012: “Methods for Dilution Antimicrobial Susceptibility Tests for Bacteria That Grow Aerobically; Approved Standard-Ninth Edition”).
(§2) Frozen glycerol stocks of laboratory engineered, isogenic E. coli strains, which contain cloned β-lactamase expressing plasmids were used to streak for isolated colonies on rich, selective LB agar supplemented with 25 μg/mL tetracycline to maintain the plasmid. All strains were incubated at 37° C. for 18-24 hrs.
(§3) On the day of testing, primary cultures were started by scraping off 5-10 colonies from the TSAB plates containing clinical strains or the tetracycline supplemented LB plates containing engineered strains. The clinical strain material was suspended in ˜5 mL of cation adjusted Mueller Hinton Broth (CAMHB) in 14 mL culture tubes. The engineered strain material was suspended in CAMHB (supplemented with 25 μg/mL tetracycline) in 14 mL culture tubes. All strains were incubated at 37° C. with aeration (200 rpm) for ˜2 hrs until the optical density at 600 nm (OD600) was ≧0.1.
(§4) The two compound components of the assay were each diluted in CAMHB and added to the 96-well broth microdilution assay plates. 50 μL of the β-lactam was added to each well of the assay plate in 2-fold dilutions with final concentrations ranging from 128 to 0.13 μg/mL. 25 μL of the BLI compound was added to all wells in the broth microdilution plates at a final concentration of 4 μg/mL. Inoculum cultures were prepared by standardizing the primary cultures to OD600=0.1 and then adding 20 μL of the adjusted primary culture per 1 mL CAMHB for clinical strains or CAMHB (supplemented with tetracycline at 100 μg/mL) for engineered strains, so that the final inoculum density was ˜10^5 colony forming units per milliliter. Diluted inoculum cultures were used to inoculate 25 μL per well in 96-well broth microdilution assay plates. The final volume of each well was 100 μL and contained a β-lactam at different concentrations, a BLIcompound at 4 μg/mL concentration, the bacterial culture at an OD600 of approximately 0.001 and when necessary tetracycline at 25 μg/mL.
(§5) Plates were incubated for 18-20 hours at 37° C. with aeration (200 rpm). Following incubation, growth was confirmed visually placing plates over a viewing apparatus (stand with a mirror underneath) and then OD600 was measured using a SpectraMax 340PC384 plate reader (Molecular Devices, Sunnyvale, Calif.). Growth was defined as turbidity that could be detected with the naked eye or achieving minimum OD600 of 0.1. […]

[2] = test system: Eco.2843 (DHA-1, isogenic); assay: Standard BLI Potentiation MIC Assay in Combination with Ceftolozane; assay type: cell-based, Escherichia coli; conditions: Escherichia coli, read-out: MIC of Ceftolozane, No BLI
Procedure: as §1, §2, §3, §4
(§6) Plates were incubated for 18-20 hours at 37° C. with aeration (200 rpm). Following incubation, growth was confirmed visually placing plates over a viewing apparatus (stand with a mirror underneath) and then OD600 was measured using a SpectraMax 340PC384 plate reader (Molecular Devices, Sunnyvale, Calif.). Growth was defined as turbidity that could be detected with the naked eye or achieving minimum OD600 of 0.1. MIC values were defined as the lowest concentration producing no visible turbidity.

[3] = test system: Eco.2845 (OXA-15, isogenic); assay: as above; assay type: cell-based, Escherichia coli; conditions: Escherichia coli, read-out: MIC of Ceftolozane, No BLI
Procedure: as §1, §2, §3, §4, §6

[4] = test system: Eco.2491 (CMY-2, clinical); assay: as above; assay type: cell-based, Escherichia coli; conditions: Escherichia coli, read-out: MIC of Ceftolozane, No BLI
Procedure: as §1, §2, §3, §4, §6

Cfr.568 (AmpC, clinical) = assay: as above; assay type: cell-based, Citrobacter spp; conditions: Citrobacter, read-out: MIC of Ceftolozane, No BLI
Procedure: as §1, §2
(§7) On the day of testing, primary cultures were started by scraping off 5-10 colonies from the TSAB plates containing clinical strains or the tetracycline supplemented LB plates containing engineered strains. […]
as §5

[5] = test system: Kpn.2909 (KPC-3, SHV+, TEM+, clinical); assay: as above; assay type: cell-based; conditions: Klebsiella pneumoniae, read-out: MIC of Ceftolozane, No BLI
Procedure: as §1, §2, §3
as §4, with “plates.” for “plates. The final volume of each well was 100 μL and contained a β-lactam at different concentrations, a BLIcompound at 4 μg/mL concentration, the bacterial culture at an OD600 of approximately 0.001 and when necessary tetracycline at 25 μg/mL.”

[6] = test system: Eco.2806 (KPC-2, isogenic); assay: as above; assay type: cell-based; conditions: Escherichia coli, read-out: MIC of Ceftolozane, No BLI
Procedure: as §1, §2, §3
as §4, with “plates.” for “plates. The final volume of each well was 100 μL and contained a β-lactam at different concentrations, a BLIcompound at 4 μg/mL concentration, the bacterial culture at an OD600 of approximately 0.001 and when necessary tetracycline at 25 μg/mL.”

[7] = test system: Kpn.2490 (KPC-3, SHV+, TEM+, clinical); assay: as above; assay type: cell-based; conditions: Klebsiella pneumoniae, read-out: MIC of Ceftolozane, No BLI
Procedure: as §1, §2, §3
as §4, with “plates.” for “plates. The final volume of each well was 100 μL and contained a β-lactam at different concentrations, a BLIcompound at 4 μg/mL concentration, the bacterial culture at an OD600 of approximately 0.001 and when necessary tetracycline at 25 μg/mL.”

[8] = test system: Kpn.571 (TEM-26, clinical); assay: as above; assay type: cell-based; conditions: Klebsiella pneumoniae, read-out: MIC of Ceftolozane, No BLI
Procedure: as §1, §2, §3
as §4, with “plates.” for “plates. The final volume of each well was 100 μL and contained a β-lactam at different concentrations, a BLIcompound at 4 μg/mL concentration, the bacterial culture at an OD600 of approximately 0.001 and when necessary tetracycline at 25 μg/mL.”

[9] = test system: Kpn.2918 (KPC-3, SHV+, TEM+, clinical); assay: as above; assay type: cell-based; conditions: Klebsiella pneumoniae, read-out: MIC of Ceftolozane, No BLI
Procedure: as §1, §2, §3
as §4, with “plates.” for “plates. The final volume of each well was 100 μL and contained a β-lactam at different concentrations, a BLIcompound at 4 μg/mL concentration, the bacterial culture at an OD600 of approximately 0.001 and when necessary tetracycline at 25 μg/mL.”

[10] = test system: Kpn.2926 (CTX-M-15, OXA-48, clinical); assay: as above; assay type: cell-based; conditions: Klebsiella pneumoniae, read-out: MIC of Ceftolozane, No BLI
Procedure: as §1, §2, §3
as §4, with “plates.” for “plates. The final volume of each well was 100 μL and contained a β-lactam at different concentrations, a BLIcompound at 4 μg/mL concentration, the bacterial culture at an OD600 of approximately 0.001 and when necessary tetracycline at 25 μg/mL.”

[11] = test system: Kpn.2478 (KPC-3, TEM+, clinical); assay: as above; assay type: cell-based; conditions: Klebsiella pneumoniae, read-out: MIC of Ceftolozane, No BLI
Procedure: as §1, §2, §3
as §4, with “plates.” for “plates. The final volume of each well was 100 μL and contained a β-lactam at different concentrations, a BLIcompound at 4 μg/mL concentration, the bacterial culture at an OD600 of approximately 0.001 and when necessary tetracycline at 25 μg/mL.”

Eco.2711 (KPC, clinical) = assay: as above; assay type: cell-based; conditions: Escherichia coli, read-out: MIC of Ceftolozane, No BLI
Procedure: as §1, §2, §3
as §4, with “plates.” for “plates. The final volume of each well was 100 μL and contained a β-lactam at different concentrations, a BLIcompound at 4 μg/mL concentration, the bacterial culture at an OD600 of approximately 0.001 and when necessary tetracycline at 25 μg/mL.”

[12] = test system: Kpn.2914 (KPC-2, SHV+, clinical); assay: as above; assay type: cell-based; conditions: Klebsiella pneumoniae, read-out: MIC of Ceftolozane, No BLI
Procedure: as §1, §2, §3
as §4, with “plates.” for “plates. The final volume of each well was 100 μL and contained a β-lactam at different concentrations, a BLIcompound at 4 μg/mL concentration, the bacterial culture at an OD600 of approximately 0.001 and when necessary tetracycline at 25 μg/mL.”

[13] = test system: Pae.2808 (KPC-2, clinical); assay: as above; assay type: cell-based; conditions: Pseudomonas aeruginosa, read-out: MIC of Ceftolozane, No BLI
Procedure: as §1, §2, §3
as §4, with “plates.” for “plates. The final volume of each well was 100 μL and contained a β-lactam at different concentrations, a BLIcompound at 4 μg/mL concentration, the bacterial culture at an OD600 of approximately 0.001 and when necessary tetracycline at 25 μg/mL.”

[14] = test system: Kpn.2913 (KPC-2, SHV+, clinical); assay: as above; assay type: cell-based; conditions: Klebsiella pneumoniae, read-out: MIC of Ceftolozane, No BLI
Procedure: as §1, §2, §3
as §4, with “plates.” for “plates. The final volume of each well was 100 μL and contained a β-lactam at different concentrations, a BLIcompound at 4 μg/mL concentration, the bacterial culture at an OD600 of approximately 0.001 and when necessary tetracycline at 25 μg/mL.”

[15] = test system: Kpn.2917 (KPC-2, SHV+, clinical); assay: as above; assay type: cell-based; conditions: Klebsiella pneumoniae, read-out: MIC of Ceftolozane, No BLI
Procedure: as §1, §2, §3
as §4, with “plates.” for “plates. The final volume of each well was 100 μL and contained a β-lactam at different concentrations, a BLIcompound at 4 μg/mL concentration, the bacterial culture at an OD600 of approximately 0.001 and when necessary tetracycline at 25 μg/mL.”

[16] = test system: Eco.2840 (KPC-4, isogenic); assay: as above; assay type: cell-based; conditions: Escherichia coli, read-out: MIC of Ceftolozane, No BLI
Procedure: as §1, §2, §3
as §4, with “plates.” for “plates. The final volume of each well was 100 μL and contained a β-lactam at different concentrations, a BLIcompound at 4 μg/mL concentration, the bacterial culture at an OD600 of approximately 0.001 and when necessary tetracycline at 25 μg/mL.”

[17] = test system: Kpn.2783 (CTX-M-15, SHV+, TEM+, clinical); assay: as above; assay type: cell-based; conditions: Klebsiella pneumoniae, read-out: MIC of Ceftolozane, No BLI
Procedure: as §1, §2, §3
as §4, with “plates.” for “plates. The final volume of each well was 100 μL and contained a β-lactam at different concentrations, a BLIcompound at 4 μg/mL concentration, the bacterial culture at an OD600 of approximately 0.001 and when necessary tetracycline at 25 μg/mL.”

[18] = test system: Eco.2781 (KPC-2, TEM+, clinical); assay: as above; assay type: cell-based; conditions: Escherichia coli, read-out: MIC of Ceftolozane, No BLI
Procedure: as §1, §2, §3
as §4, with “plates.” for “plates. The final volume of each well was 100 μL and contained a β-lactam at different concentrations, a BLIcompound at 4 μg/mL concentration, the bacterial culture at an OD600 of approximately 0.001 and when necessary tetracycline at 25 μg/mL.”

[19] = test system: Pae.2863 (AmpC de-repress, clinical); assay: as above; assay type: cell-based, Pseudomonas aeruginosa; conditions: Pseudomonas aeruginosa, read-out: MIC of Ceftolozane, No BLI
Procedure: as §1, §2, §3, §4, §6

[20] = test system: Pae.2757 (AmpC over-expn, clinical); assay: as above; assay type: cell-based, Pseudomonas aeruginosa; conditions: Pseudomonas aeruginosa, read-out: MIC of Ceftolozane, No BLI
Procedure: as §1, §2, §3, §4, §6

[21] = test system: Pae.2885 (AmpC, clinical); assay: as above; assay type: cell-based, Pseudomonas aeruginosa; conditions: Pseudomonas aeruginosa, read-out: MIC of Ceftolozane, No BLI
Procedure: as §1, §2, §3, §4, §6

Ecl.569 (AmpC, clinical) = assay: as above; assay type: cell-based, Enterobacter spp; conditions: Enterobacter, read-out: MIC of Ceftolozane, No BLI
Procedure: as §1, §2, §7, §5

[22] = test system: Eco.2902 (Aba-ADC-33, isogenic); assay: as above; assay type: cell-based; conditions: Escherichia coli, read-out: MIC of Ceftolozane, No BLI
Procedure: as §1, §2, §7, §5

Cn1c(N)c(NC(=O)NCCN)c[n+]1CC1=C(C(=O)O)N2C(=O)[C@@H](NC(=O)/C(=N\OC(C)(C)C(=O)[O-])c3nsc(N)n3)[C@H]2SC1 [Ceftolozane]
MIC50 [1]: > 64 µg/mL | MIC90 [1]: > 64 µg/mL | MIC [2]: > 64 µg/mL | MIC [3]: > 64 µg/mL | MIC [4]: 16 to 32 µg/mL | MIC (Cfr.568 (AmpC, clinical)): > 64 µg/mL | MIC [5]: > 64 µg/mL | MIC [6]: > 64 µg/mL | MIC [7]: > 64 µg/mL | MIC [8]: 16 to 32 µg/mL | MIC [9]: > 64 µg/mL | MIC [10]: > 64 µg/mL | MIC [11]: > 64 µg/mL | MIC (Eco.2711 (KPC, clinical)): 16 to 32 µg/mL | MIC [12]: 16 to 32 µg/mL | MIC [13]: > 64 µg/mL | MIC [14]: 16 to 32 µg/mL | MIC [15]: 16 to 32 µg/mL | MIC [16]: > 64 µg/mL | MIC [17]: > 64 µg/mL | MIC [18]: 4 to 8 µg/mL | MIC [19]: 4 to 8 µg/mL | MIC [20]: 4 to 8 µg/mL | MIC [21]: 1 to 2 µg/mL | MIC (Ecl.569 (AmpC, clinical)): > 64 µg/mL | MIC [22]: > 64 µg/mL
